In paper PMC4919791, “Effect of curcumin analogs onα-synuclein aggregation and cytotoxicity” (Scientific Reports, 2016):

Target: T1, α-Syn fibrils (Homo sapiens, UniProt P37840)
T1 construct: made in house; host or cells: Escherichia coli BL21
Test: Binding affinity to α-Syn fibrils by curcumin analog fluorescence
Protocol: To estimate the comparative binding affinity of curcumin analogs to the α-Syn fibrils and oligomers, curcumin fluorescence assay was performed for each analog. For binding study with fibrils, 10 μM of α-Syn fibrils were incubated in presence of varying concentration of curcumin and its analogs (0.25 μM to 30 μM) for 30 min at RT in dark and then fluorescence spectra were recorded. The normalized fluorescence intensity of different concentrations of curcumin/analogs at their corresponding λmax was plotted to obtain their respective saturation plots (Figs 6A and S7). From the saturation plot, dissociation constant (Kd) was calculated (see method section).
The binding of curcumin/analogs to α-Syn fibrils were determined based on change in fluorescence intensity. For this study, 10 μM α-Syn fibrils were incubated in presence and absence of varying concentration of curcumin/analogs (0.25 μM to 30 μM) for 30 min at RT in dark. Immediately after incubation, fluorescence study was performed (for the excitation and emission ranges for each compounds, see Fig. S1). Experiments were performed using FluoroMax-4 spectrofluorometer (HORIBA JobinYvon) with excitation and emission slit widths of 5 nm. The maximum fluorescence intensity for curcumin/analogs was normalized with respect to that of the lowest concentration of each analog. The normalized fluorescence intensity was plotted against increasing concentration of curcumin/analogs and the dissociation constant was determined using the equation
where, “ΔF” is the change in the fluorescence intensity of curcumin/analogs, “ΔFmax” is the change in the fluorescence intensity at saturation point and “L”is the concentration of curcumin/analogs. The data were analyzed in Graphpad Prism software according to established method as used previously. Similarly, the dissociation constant of curcumin and its analogs with preformed α-Syn oligomers and monomers (obtained from SEC) were also determined.

## COc1cc(/C=C/C(=O)CC(=O)/C=C/c2ccc(OCc3ccccc3)c(OC)c2)ccc1OCc1ccccc1 [C6]
10 μM fibrils, 0.25–30 μM analog, 30 min RT, read-out: dissociation constant (Kd) for α-Syn fibrils
  Kd: 0.482 ± 0.07 µM
Compound fluorescence
  binding with preformed α-Syn fibrils: highest binding
